These results are taken from ChEMBL document CHEMBL4184210, “Optimization of novel monobactams with activity against carbapenem-resistant Enterobacteriaceae - Identification of LYS228” (Bioorg Med Chem Lett, 2018).

Data set [1] relates to Escherichia coli. Description: microbe, parasite or virus in culture.
Description: Antimicrobial activity against Escherichia coli expressing beta-lactamase AmpC by CLSI broth microdilution method
For data set [2], the system named is Escherichia coli. Description: microbe, parasite or virus in culture. This is another data set of the same source.
Description: Antimicrobial activity against Escherichia coli expressing beta-lactamase SHV-12 by CLSI broth microdilution method
For data set [3], the system named is Escherichia coli. Description: microbe, parasite or virus in culture. This is another data set of the same source.
Description: Antimicrobial activity against Escherichia coli expressing beta-lactamase CTXM-15 by CLSI broth microdilution method
The subject of data set [4] is Escherichia coli. Kind of data set: microbe, parasite or virus in culture. This is another data set of the same source.
Description: Antimicrobial activity against wild type Escherichia coli by CLSI broth microdilution method
Data set [5] is described as follows: Chemical stability in pH 7.4 potassium phosphate buffer assessed as half life for compound hydrolysis at 37 degC by UPLC and mass spectrometry. The class given is physicochemical.
Data set [6] deals with Escherichia coli. Description: Antimicrobial activity against Escherichia coli expressing beta-lactamase KPC-2 by CLSI broth microdilution method. The class given is functional. (Dilution methods test growth across graded concentrations, often in twofold steps.)
The subject of data set [7] is Escherichia coli. Description: microbe, parasite or virus in culture. This is another data set of the same source.
Description: Antimicrobial activity against Escherichia coli expressing beta-lactamase CMY-2 by CLSI broth microdilution method
For data set [8], the system named is Escherichia coli. Kind of data set: microbe, parasite or virus in culture. This is another data set of the same source.
Description: Antimicrobial activity against Escherichia coli expressing beta-lactamase TEM-10 by CLSI broth microdilution method

Values after ≈ are worked out from the molar mass of the structure shown.

Usually half-life stands for the time needed for the level to fall by half in the phase considered. As to `CC(C)(O/N=C(\C(=O)N[C@@H]1C(=O)N(S(=O)(=O)O)[C@@H]1Cn1cc(NC(=O)C[N+](C)(C)C)nn1)c1csc(N)n1)C(=O)O`, the MIC against Escherichia coli [1] was 2 µg/mL; in the data set with Escherichia coli [2], 8 µg/mL; with Escherichia coli [3], 2 µg/mL; in the data set on Escherichia coli [4] it was 1 µg/mL; against Escherichia coli [6], 2 µg/mL; against Escherichia coli [7] it was 8 µg/mL. Besides, in the data set with Escherichia coli [8], the MIC is 8 µg/mL. In addition, the half-life in data set [5] is over 37 h.

Turning to `CC(C)(O/N=C(\C(=O)N[C@@H]1C(=O)N(S(=O)(=O)O)[C@@H]1Cn1cc(C(=O)O)nn1)c1csc(N)n1)C(=O)O` (stereo in doubt), the MIC came out at 32 µg/mL (≈ 58.6 µM) against Escherichia coli [1]; 16 µg/mL (≈ 29.3 µM) with Escherichia coli [2]; 16 µg/mL (≈ 29.3 µM) with Escherichia coli [3]; 32 µg/mL (≈ 58.6 µM) against Escherichia coli [4]; 16 µg/mL (≈ 29.3 µM) against Escherichia coli [6]; 64 µg/mL (≈ 117 µM) against Escherichia coli [7]. This compound came in with an MIC with Escherichia coli [8] of 32 µg/mL (≈ 58.6 µM). The half-life in data set [5] is over 37 h.

Turning to `CC(C)(O/N=C(\C(=O)N[C@@H]1C(=O)N(S(=O)(=O)O)[C@@H]1CN1C[C@H](CNC(=N)N)OC1=O)c1csc(N)n1)C(=O)O` (stereo in doubt), the MIC in the data set on Escherichia coli [1] is 16 µg/mL (≈ 27 µM); with Escherichia coli [2] it was 16 µg/mL (≈ 27 µM); against Escherichia coli [3] it was 8 µg/mL (≈ 13.5 µM); against Escherichia coli [4], 8 µg/mL (≈ 13.5 µM); in the data set on Escherichia coli [6], 16 µg/mL (≈ 27 µM); against Escherichia coli [7], 32 µg/mL (≈ 54.1 µM). In the data set on Escherichia coli [8], this compound displayed an MIC of over 64 µg/mL. The half-life in data set [5] was over 37 h.

Regarding `CC(C)(O/N=C(\C(=O)N[C@@H]1C(=O)N(S(=O)(=O)O)[C@@H]1CN1C[C@@H](CO)OC1=O)c1csc(N)n1)C(=O)O` (stereo in doubt), the MIC against Escherichia coli [1] was 32 µg/mL (≈ 58.1 µM); with Escherichia coli [2], 32 µg/mL (≈ 58.1 µM); in the data set on Escherichia coli [3] it was 16 µg/mL (≈ 29.1 µM); against Escherichia coli [4] it was 16 µg/mL (≈ 29.1 µM); in the data set on Escherichia coli [6], 32 µg/mL (≈ 58.1 µM); with Escherichia coli [7], 16 µg/mL (≈ 29.1 µM). The MIC against Escherichia coli [8] amounted to 64 µg/mL (≈ 116 µM). For the same compound, the half-life in data set [5] was over 37 h.

Regarding `CC(C)(O/N=C(\C(=O)N[C@@H]1C(=O)N(S(=O)(=O)O)[C@@H]1Cn1cc(CN)nn1)c1csc(N)n1)C(=O)O` (stereo in doubt), the MIC in the data set on Escherichia coli [1] amounted to 1 µg/mL (≈ 1.88 µM); against Escherichia coli [2], 4 µg/mL (≈ 7.53 µM); in the data set with Escherichia coli [3], 1 µg/mL (≈ 1.88 µM); against Escherichia coli [4] it was 1 µg/mL (≈ 1.88 µM); with Escherichia coli [6], 2 µg/mL (≈ 3.76 µM); with Escherichia coli [7], 1 µg/mL (≈ 1.88 µM). In the data set on Escherichia coli [8], this compound had an MIC of 2 µg/mL (≈ 3.76 µM). In data set [5], the half-life is over 37 h.

`Nc1nc(/C(=N/OC2(C(=O)O)CCC2)C(=O)N[C@@H]2C(=O)N(S(=O)(=O)O)[C@@H]2Cn2cncn2)cs1` (stereo in doubt): the MIC is 2 µg/mL (≈ 3.89 µM) against Escherichia coli [1]; 1 µg/mL (≈ 1.94 µM) against Escherichia coli [2]; 0.5 µg/mL (≈ 0.972 µM) with Escherichia coli [3]; 1 µg/mL (≈ 1.94 µM) against Escherichia coli [4]; 1 µg/mL (≈ 1.94 µM) with Escherichia coli [6]; 4 µg/mL (≈ 7.77 µM) in the data set with Escherichia coli [7]. In addition, in the data set with Escherichia coli [8], the MIC was found to be 4 µg/mL (≈ 7.77 µM).

Regarding `C[C@H](O/N=C(\C(=O)N[C@@H]1C(=O)N(S(=O)(=O)O)[C@@H]1Cn1cncn1)c1csc(N)n1)C(=O)O` (stereo in doubt), the MIC in the data set on Escherichia coli [1] stood at 2 µg/mL (≈ 4.09 µM); with Escherichia coli [2], 4 µg/mL (≈ 8.19 µM); against Escherichia coli [3], 0.125 µg/mL (≈ 0.256 µM); in the data set with Escherichia coli [4], 0.125 µg/mL (≈ 0.256 µM); against Escherichia coli [6] it was 1 µg/mL (≈ 2.05 µM); against Escherichia coli [7] it was 8 µg/mL (≈ 16.4 µM). The MIC against Escherichia coli [8] is 4 µg/mL (≈ 8.19 µM).

`CC(C)(O/N=C(\C(=O)N[C@@H]1C(=O)N(S(=O)(=O)O)[C@@H]1CN1C[C@@H](CN)OC1=O)c1csc(N)n1)C(=O)O` (stereo in doubt): the MIC against Escherichia coli [1] came out at 1 µg/mL (≈ 1.82 µM); against Escherichia coli [2], 0.5 µg/mL (≈ 0.91 µM); in the data set with Escherichia coli [3] it was 0.5 µg/mL (≈ 0.91 µM); against Escherichia coli [4], 0.5 µg/mL (≈ 0.91 µM); in the data set with Escherichia coli [6], 1 µg/mL (≈ 1.82 µM); against Escherichia coli [7], 1 µg/mL (≈ 1.82 µM). The MIC in the data set on Escherichia coli [8] was determined as 2 µg/mL (≈ 3.64 µM). Also, the half-life in data set [5] is over 37 h.

Consider `Nc1nc(/C(=N/OC2(C(=O)O)CC2)C(=O)N[C@@H]2C(=O)N(S(=O)(=O)O)[C@@H]2Cn2cncn2)cs1` (stereo in doubt), for which the MIC amounted to 1 µg/mL (≈ 2 µM) against Escherichia coli [1]; 1 µg/mL (≈ 2 µM) with Escherichia coli [2]; 0.125 µg/mL (≈ 0.25 µM) against Escherichia coli [3]; 0.125 µg/mL (≈ 0.25 µM) against Escherichia coli [4]; 0.25 µg/mL (≈ 0.5 µM) against Escherichia coli [6]; 1 µg/mL (≈ 2 µM) against Escherichia coli [7]. The MIC against Escherichia coli [8] turned out to be 0.5 µg/mL (≈ 0.999 µM).

As for `CC(C)(O/N=C(\C(=O)N[C@@H]1C(=O)N(S(=O)(=O)O)[C@@H]1CN1C[C@H](CO)OC1=O)c1csc(N)n1)C(=O)O` (stereo in doubt), the MIC with Escherichia coli [1] came out at 2 µg/mL (≈ 3.63 µM); in the data set with Escherichia coli [2], 2 µg/mL (≈ 3.63 µM); against Escherichia coli [3], 1 µg/mL (≈ 1.82 µM); against Escherichia coli [4], 2 µg/mL (≈ 3.63 µM); against Escherichia coli [6] it was 4 µg/mL (≈ 7.27 µM); in the data set with Escherichia coli [7], 4 µg/mL (≈ 7.27 µM). For the same compound, the MIC in the data set with Escherichia coli [8] is over 64 µg/mL. In addition, the half-life in data set [5] was over 37 h.

For `C[C@@H]1CN(C[C@@H]2[C@H](NC(=O)/C(=N\OC(C)(C)C(=O)O)c3csc(N)n3)C(=O)N2S(=O)(=O)O)C(=O)O1` (stereo in doubt), the MIC against Escherichia coli [1] was determined as 2 µg/mL (≈ 3.74 µM); with Escherichia coli [2], 1 µg/mL (≈ 1.87 µM); in the data set with Escherichia coli [3] it was 1 µg/mL (≈ 1.87 µM); with Escherichia coli [4] it was 1 µg/mL (≈ 1.87 µM); with Escherichia coli [6], 1 µg/mL (≈ 1.87 µM); in the data set on Escherichia coli [7], 4 µg/mL (≈ 7.48 µM). The same compound came in with an MIC with Escherichia coli [8] of 8 µg/mL (≈ 15 µM). The half-life in data set [5] is over 37 h.

Take `C[C@@H](O/N=C(\C(=O)N[C@@H]1C(=O)N(S(=O)(=O)O)[C@@H]1Cn1cncn1)c1csc(N)n1)C(=O)O` (stereo in doubt): the MIC turned out to be 4 µg/mL (≈ 8.19 µM) against Escherichia coli [1]; 2 µg/mL (≈ 4.09 µM) against Escherichia coli [2]; 0.5 µg/mL (≈ 1.02 µM) in the data set on Escherichia coli [3]; 1 µg/mL (≈ 2.05 µM) with Escherichia coli [4]; 1 µg/mL (≈ 2.05 µM) against Escherichia coli [6]; 16 µg/mL (≈ 32.8 µM) in the data set on Escherichia coli [7]. In the data set with Escherichia coli [8], this compound registered an MIC of 1 µg/mL (≈ 2.05 µM).

For the compound `CC(C)(O/N=C(\C(=O)N[C@@H]1C(=O)N(S(=O)(=O)O)[C@@H]1Cn1cc(CO)nn1)c1csc(N)n1)C(=O)O` (stereo in doubt), the MIC in the data set with Escherichia coli [1] was 4 µg/mL (≈ 7.51 µM); against Escherichia coli [2], 16 µg/mL (≈ 30 µM); in the data set on Escherichia coli [3], 1 µg/mL (≈ 1.88 µM); in the data set on Escherichia coli [4] it was 0.5 µg/mL (≈ 0.939 µM); against Escherichia coli [6], 4 µg/mL (≈ 7.51 µM); in the data set with Escherichia coli [7], 4 µg/mL (≈ 7.51 µM). The same compound displayed an MIC in the data set on Escherichia coli [8] of 8 µg/mL (≈ 15 µM). The half-life in data set [5] is over 37 h.

Regarding `CC(C)(O/N=C(\C(=O)N[C@@H]1C(=O)N(S(=O)(=O)O)[C@@H]1CN1C[C@H](CN)OC1=O)c1csc(N)n1)C(=O)O` (stereo in doubt), the MIC was determined as 1 µg/mL (≈ 1.82 µM) in the data set with Escherichia coli [1]; 1 µg/mL (≈ 1.82 µM) in the data set on Escherichia coli [2]; 1 µg/mL (≈ 1.82 µM) in the data set with Escherichia coli [3]; 1 µg/mL (≈ 1.82 µM) in the data set with Escherichia coli [4]; 1 µg/mL (≈ 1.82 µM) against Escherichia coli [6]; 2 µg/mL (≈ 3.64 µM) in the data set on Escherichia coli [7]. The compound further came in with an MIC in the data set with Escherichia coli [8] of 8 µg/mL (≈ 14.6 µM). The half-life in data set [5] was over 37 h.

On to `Nc1nc(/C(=N/OCC(=O)O)C(=O)N[C@@H]2C(=O)N(S(=O)(=O)O)[C@@H]2Cn2cncn2)cs1` (stereo in doubt), for which the MIC with Escherichia coli [1] amounted to 16 µg/mL (≈ 33.7 µM); against Escherichia coli [2] it was 16 µg/mL (≈ 33.7 µM); with Escherichia coli [3], 0.25 µg/mL (≈ 0.527 µM); against Escherichia coli [4], 0.125 µg/mL (≈ 0.263 µM); with Escherichia coli [6], 0.5 µg/mL (≈ 1.05 µM); in the data set on Escherichia coli [7], 8 µg/mL (≈ 16.9 µM). Besides, the MIC in the data set on Escherichia coli [8] was 1 µg/mL (≈ 2.11 µM).

`CC(C)(O/N=C(\C(=O)N[C@@H]1C(=O)N(S(=O)(=O)O)[C@@H]1CN1C[C@@H](CNC(=N)N)OC1=O)c1csc(N)n1)C(=O)O` (stereo in doubt): the MIC against Escherichia coli [1] worked out at 0.25 µg/mL (≈ 0.423 µM); in the data set with Escherichia coli [2] it was 0.25 µg/mL (≈ 0.423 µM); with Escherichia coli [3], 0.125 µg/mL (≈ 0.211 µM); against Escherichia coli [4] it was 0.25 µg/mL (≈ 0.423 µM); in the data set on Escherichia coli [6], 1 µg/mL (≈ 1.69 µM); in the data set on Escherichia coli [7], 0.25 µg/mL (≈ 0.423 µM). In the data set with Escherichia coli [8], this compound showed an MIC of 2 µg/mL (≈ 3.38 µM). The half-life in data set [5] was over 37 h.

For `C[C@@H](O)[C@H]1C(=O)N2C(C(=O)O)=C(SCCN=CN)C[C@H]12` [IMIPENEM ANHYDROUS], the half-life in data set [5] is 46 h.
